Tests used:
Format in all cases: functional
[1] = test system: Solanum lycopersicum; assay: Increase in plant height of Solanum lycopersicum (tomato) exposed to 90 L/ha compound fumigation treatment measured 50 days after compound treatment (reference value: 86.2 cm)
[2] = test system: Digitaria sanguinalis; assay: Herbicidal activity against Digitaria sanguinalis (hairy crabgrass) in cucumber plants fields exposed to 120 L/ha compound fumigation treatment assessed as hand weeding time per plot (reference value: 258.3 hr/ha)
[3] = test system: Meloidogyne incognita; assay: Nematicidal activity against Meloidogyne incognita (root-knot nematode) in cucumber growing fields exposed to 120 L/ha compound fumigation treatment assessed as root galling index measured 20 days after compound treatment (reference value: 8.72 root galling index)
[4] = test system: Solanum lycopersicum; assay: Increase in crop yield in Cucumis sativus (cucumber) plants exposed to 90 L/ha compound fumigation treatment assessed as large fruit yield (reference value: 19.5 ton/ha)
[5] = test system: Solanum lycopersicum; assay: Increase in crop yield in Cucumis sativus (cucumber) plants exposed to 180 L/ha compound fumigation treatment assessed as large fruit yield (reference value: 19.5 ton/ha)
[6] = test system: Arenaria serpyllifolia; assay: Herbicidal activity against Arenaria serpyllifolia in cucumber plants fields exposed to 120 L/ha compound fumigation treatment assessed as hand weeding time per plot relative to untreated control

Compound: Cl/C=C/CCl [1,3-DICHLOROPROPENE]
- Activity [1]: 98.3 cm
- Time [2]: 74.4 hr/ha
- Root_galling_index [3]: 2.92
- Crop_yield [4]: 24.8 tons/ha
- Crop_yield [5]: 31.7 tons/ha
- Activity [6]: 45%
